Several values for one entry are separate records, joined by “and”; a condition that tells them apart may be missing. Equal values may be shown once. Read-outs that look alike come from different tables or passages of the source.
Experiments:
CDK1/Cyclin E1 = CDK1/Cyclin E1 (Homo sapiens, UniProt P06493); experiment: NanoBRET live-cell target engagement, CDK1-NanoLuc/Cyclin E1 in HEK-293; type: binding; conditions: CDK1/E1; for IC50: read-out: IC50
CDK2/Cyclin E1 = CDK2/Cyclin E1 (Homo sapiens, UniProt P24941); experiment: NanoBRET live-cell target engagement, CDK2-NanoLuc/Cyclin E1 in HEK-293; type: binding; conditions: 10 µM
CDK3/Cyclin E1 = CDK3/Cyclin E1 (Homo sapiens, UniProt Q00526); experiment: NanoBRET live-cell target engagement, CDK3-NanoLuc/Cyclin E1 in HEK-293; type: binding
CDK4/Cyclin D1 = CDK4/Cyclin D1 (Homo sapiens, UniProt P11802); experiment: NanoBRET live-cell target engagement, NanoLuc-CDK4/Cyclin D1 in HEK-293; type: binding; conditions: CDK4/D1; for IC50: read-out: IC50
CDK5/CDK5R1 = CDK5/CDK5R1 (Homo sapiens, UniProt Q00535); experiment: NanoBRET live-cell target engagement, CDK5-NanoLuc/CDK5R1 in HEK-293; type: binding; conditions: CDK5/CDK5R1; for IC50: read-out: IC50
CDK6/Cyclin D1 = CDK6/Cyclin D1 (Homo sapiens, UniProt Q00534); experiment: NanoBRET live-cell target engagement, NanoLuc-CDK6/Cyclin D1 in HEK-293; type: binding; conditions: CDK6/D1; for IC50: read-out: IC50
Chain of CDK6/Cyclin D1 (Q00534 whole entry): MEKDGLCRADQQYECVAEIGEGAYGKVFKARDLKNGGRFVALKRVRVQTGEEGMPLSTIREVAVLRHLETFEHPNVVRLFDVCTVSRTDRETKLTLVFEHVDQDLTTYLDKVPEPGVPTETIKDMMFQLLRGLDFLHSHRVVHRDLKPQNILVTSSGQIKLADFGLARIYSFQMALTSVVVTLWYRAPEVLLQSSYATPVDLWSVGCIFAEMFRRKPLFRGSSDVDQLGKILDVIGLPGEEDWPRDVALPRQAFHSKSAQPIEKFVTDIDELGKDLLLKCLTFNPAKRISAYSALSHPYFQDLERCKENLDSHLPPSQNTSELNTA
Chain of CDK6/Cyclin D1 (P24385 whole entry partner): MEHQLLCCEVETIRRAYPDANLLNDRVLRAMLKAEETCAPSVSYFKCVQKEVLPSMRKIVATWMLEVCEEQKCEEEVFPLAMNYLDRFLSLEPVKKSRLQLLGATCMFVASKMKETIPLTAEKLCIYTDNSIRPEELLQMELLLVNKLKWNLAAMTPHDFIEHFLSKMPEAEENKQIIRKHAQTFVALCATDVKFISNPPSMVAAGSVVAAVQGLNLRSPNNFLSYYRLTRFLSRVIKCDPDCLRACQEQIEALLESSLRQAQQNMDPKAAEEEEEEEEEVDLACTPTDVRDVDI

CDK7 = CDK7 (Homo sapiens, UniProt P50613); experiment: NanoBRET live-cell target engagement, NanoLuc-CDK7 in HEK-293; type: binding; conditions: CDK7; for IC50: read-out: IC50
Chain of CDK7 (P50613 whole entry): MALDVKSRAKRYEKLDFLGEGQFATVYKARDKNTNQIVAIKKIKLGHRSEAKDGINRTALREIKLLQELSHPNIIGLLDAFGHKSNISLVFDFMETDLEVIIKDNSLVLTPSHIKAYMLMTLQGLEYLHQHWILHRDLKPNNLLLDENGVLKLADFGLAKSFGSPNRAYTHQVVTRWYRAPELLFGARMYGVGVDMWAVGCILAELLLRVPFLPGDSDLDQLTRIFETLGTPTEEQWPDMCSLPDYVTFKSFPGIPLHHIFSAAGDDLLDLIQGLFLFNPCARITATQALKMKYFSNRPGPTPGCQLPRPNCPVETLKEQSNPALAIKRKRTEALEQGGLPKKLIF

CDK8/Cyclin C = CDK8/Cyclin C (Homo sapiens, UniProt P49336); experiment: NanoBRET live-cell target engagement, NanoLuc-CDK8/Cyclin C in HEK-293; type: binding; conditions: CDK8/C
Chain of CDK8/Cyclin C (P49336 whole entry): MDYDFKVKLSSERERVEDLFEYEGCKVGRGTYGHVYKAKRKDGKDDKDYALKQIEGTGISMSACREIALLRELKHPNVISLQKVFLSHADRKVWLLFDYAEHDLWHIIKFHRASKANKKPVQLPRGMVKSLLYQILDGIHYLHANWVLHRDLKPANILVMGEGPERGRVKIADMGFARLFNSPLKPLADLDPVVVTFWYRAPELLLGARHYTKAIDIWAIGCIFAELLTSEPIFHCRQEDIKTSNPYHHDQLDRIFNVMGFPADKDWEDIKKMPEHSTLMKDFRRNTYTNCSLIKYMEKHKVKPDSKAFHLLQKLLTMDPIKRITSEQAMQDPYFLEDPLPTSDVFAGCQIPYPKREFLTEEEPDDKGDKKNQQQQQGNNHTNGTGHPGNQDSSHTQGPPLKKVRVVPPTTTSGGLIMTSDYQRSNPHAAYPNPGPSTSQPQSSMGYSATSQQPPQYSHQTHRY
Chain of CDK8/Cyclin C (P24863 whole entry partner): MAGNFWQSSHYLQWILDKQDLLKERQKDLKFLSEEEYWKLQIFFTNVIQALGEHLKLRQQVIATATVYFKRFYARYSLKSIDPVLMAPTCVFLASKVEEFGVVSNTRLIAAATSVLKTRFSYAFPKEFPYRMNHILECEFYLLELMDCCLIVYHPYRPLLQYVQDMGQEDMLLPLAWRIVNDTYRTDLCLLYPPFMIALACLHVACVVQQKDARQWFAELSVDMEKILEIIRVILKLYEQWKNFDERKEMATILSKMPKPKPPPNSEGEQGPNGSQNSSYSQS

CDK11A/Cyclin L2 = molecular target: T1, CDK11A/Cyclin L2 (Homo sapiens, UniProt Q9UQ88); experiment: NanoBRET live-cell target engagement, CDK11A-NanoLuc/Cyclin L2 in HEK-293; type: binding; conditions: CDK11a/L2; for IC50: read-out: IC50
T1 sequence (Q9UQ88 1-783): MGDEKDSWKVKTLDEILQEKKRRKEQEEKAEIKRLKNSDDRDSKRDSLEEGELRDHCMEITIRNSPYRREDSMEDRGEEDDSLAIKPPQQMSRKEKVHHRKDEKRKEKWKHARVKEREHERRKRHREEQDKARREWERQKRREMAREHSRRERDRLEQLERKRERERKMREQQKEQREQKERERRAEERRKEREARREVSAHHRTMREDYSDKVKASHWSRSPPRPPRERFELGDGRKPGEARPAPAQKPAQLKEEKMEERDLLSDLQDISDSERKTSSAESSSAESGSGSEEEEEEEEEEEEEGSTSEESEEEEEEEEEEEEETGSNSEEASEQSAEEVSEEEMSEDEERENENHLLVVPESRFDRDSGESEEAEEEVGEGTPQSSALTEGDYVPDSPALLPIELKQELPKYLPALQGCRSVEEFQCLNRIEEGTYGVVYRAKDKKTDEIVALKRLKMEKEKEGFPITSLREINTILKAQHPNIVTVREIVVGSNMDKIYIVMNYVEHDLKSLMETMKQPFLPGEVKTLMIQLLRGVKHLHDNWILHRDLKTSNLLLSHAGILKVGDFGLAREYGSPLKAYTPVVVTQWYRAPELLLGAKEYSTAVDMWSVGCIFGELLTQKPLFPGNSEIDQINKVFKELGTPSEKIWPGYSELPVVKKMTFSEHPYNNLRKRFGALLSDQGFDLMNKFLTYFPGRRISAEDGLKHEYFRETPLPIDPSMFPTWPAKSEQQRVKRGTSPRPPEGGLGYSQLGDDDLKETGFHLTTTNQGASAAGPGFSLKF

CDK11B/Cyclin L2 = CDK11B/Cyclin L2 (Homo sapiens, UniProt P21127); experiment: NanoBRET live-cell target engagement, CDK11B-NanoLuc/Cyclin L2 in HEK-293; type: binding; conditions: CDK11b/L2; for IC50: read-out: IC50
CDK12/Cyclin K = CDK12/Cyclin K (Homo sapiens, UniProt Q9NYV4); experiment: NanoBRET live-cell target engagement, CDK12-NanoLuc/Cyclin K in HEK-293; type: binding; conditions: CDK12/K
CDK13/Cyclin K = CDK13/Cyclin K (Homo sapiens, UniProt Q14004); experiment: NanoBRET live-cell target engagement, CDK13-NanoLuc/Cyclin K in HEK-293; type: binding; conditions: CDK13/K
CDK15/Cyclin Y = CDK15/Cyclin Y (Homo sapiens, UniProt Q96Q40); experiment: NanoBRET live-cell target engagement, NanoLuc-CDK15/Cyclin Y in HEK-293; type: binding; conditions: CDK15/Y; for IC50: read-out: IC50
Chain of CDK15/Cyclin Y (Q96Q40 whole entry): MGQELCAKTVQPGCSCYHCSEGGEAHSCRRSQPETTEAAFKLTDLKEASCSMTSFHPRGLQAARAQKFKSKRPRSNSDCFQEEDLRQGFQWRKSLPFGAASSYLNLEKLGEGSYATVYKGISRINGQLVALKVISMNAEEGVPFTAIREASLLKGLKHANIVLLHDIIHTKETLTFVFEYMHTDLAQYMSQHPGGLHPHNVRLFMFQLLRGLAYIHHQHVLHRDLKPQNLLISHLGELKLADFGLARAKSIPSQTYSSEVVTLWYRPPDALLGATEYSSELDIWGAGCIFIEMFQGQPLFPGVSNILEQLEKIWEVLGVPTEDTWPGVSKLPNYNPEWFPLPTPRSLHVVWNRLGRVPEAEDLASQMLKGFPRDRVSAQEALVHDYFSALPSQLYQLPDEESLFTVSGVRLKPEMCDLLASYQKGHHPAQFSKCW
Chain of CDK15/Cyclin Y (Q8ND76 whole entry partner): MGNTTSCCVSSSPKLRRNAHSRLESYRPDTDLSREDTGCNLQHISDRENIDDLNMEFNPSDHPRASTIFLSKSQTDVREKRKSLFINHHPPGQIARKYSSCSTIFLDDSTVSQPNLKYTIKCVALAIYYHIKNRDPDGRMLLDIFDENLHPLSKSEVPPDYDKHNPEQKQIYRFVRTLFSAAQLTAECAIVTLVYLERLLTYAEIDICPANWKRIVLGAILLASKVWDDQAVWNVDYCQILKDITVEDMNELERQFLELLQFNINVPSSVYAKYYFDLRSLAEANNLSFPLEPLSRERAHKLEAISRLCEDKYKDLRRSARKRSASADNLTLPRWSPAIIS

CDK16/Cyclin Y = CDK16/Cyclin Y (Homo sapiens, UniProt Q00536); experiment: NanoBRET live-cell target engagement, CDK16-NanoLuc/Cyclin Y in HEK-293; type: binding; conditions: CDK16/Y; for IC50: read-out: IC50
Chain of CDK16/Cyclin Y (Q00536 whole entry): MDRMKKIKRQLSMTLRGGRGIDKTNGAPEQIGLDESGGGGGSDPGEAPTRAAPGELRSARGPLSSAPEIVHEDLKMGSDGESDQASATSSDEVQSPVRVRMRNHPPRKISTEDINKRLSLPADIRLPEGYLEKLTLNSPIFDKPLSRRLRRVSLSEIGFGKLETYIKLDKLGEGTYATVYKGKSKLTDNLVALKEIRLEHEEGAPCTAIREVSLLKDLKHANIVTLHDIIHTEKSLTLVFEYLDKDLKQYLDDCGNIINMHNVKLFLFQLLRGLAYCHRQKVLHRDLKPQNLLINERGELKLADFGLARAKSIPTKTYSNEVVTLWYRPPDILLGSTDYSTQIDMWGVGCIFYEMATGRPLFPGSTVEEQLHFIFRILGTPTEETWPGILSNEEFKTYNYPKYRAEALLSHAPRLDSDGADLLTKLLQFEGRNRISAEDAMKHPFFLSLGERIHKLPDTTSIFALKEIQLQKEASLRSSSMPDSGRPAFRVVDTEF
Chain of CDK16/Cyclin Y (Q8ND76 whole entry partner): as the sequence (Q8ND76 whole entry partner) above

CDK17/Cyclin Y = CDK17/Cyclin Y (Homo sapiens, UniProt Q00537); experiment: NanoBRET live-cell target engagement, CDK17-NanoLuc/Cyclin Y in HEK-293; type: binding; conditions: CDK17/Y; for IC50: read-out: IC50
Chain of CDK17/Cyclin Y (Q00537 whole entry): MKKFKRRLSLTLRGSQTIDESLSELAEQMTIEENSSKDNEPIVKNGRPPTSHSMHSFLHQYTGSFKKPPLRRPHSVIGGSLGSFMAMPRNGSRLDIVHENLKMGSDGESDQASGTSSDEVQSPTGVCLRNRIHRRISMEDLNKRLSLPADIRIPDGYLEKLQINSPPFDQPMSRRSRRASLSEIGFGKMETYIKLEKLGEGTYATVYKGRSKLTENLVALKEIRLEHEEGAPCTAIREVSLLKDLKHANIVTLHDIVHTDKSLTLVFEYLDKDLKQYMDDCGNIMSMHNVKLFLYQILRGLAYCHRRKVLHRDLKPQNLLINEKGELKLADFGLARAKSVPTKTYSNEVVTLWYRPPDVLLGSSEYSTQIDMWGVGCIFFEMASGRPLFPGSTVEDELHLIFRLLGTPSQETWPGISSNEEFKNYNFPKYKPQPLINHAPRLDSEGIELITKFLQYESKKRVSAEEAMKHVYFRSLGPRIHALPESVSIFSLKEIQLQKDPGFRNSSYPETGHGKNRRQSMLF
Chain of CDK17/Cyclin Y (Q8ND76 whole entry partner): as the sequence (Q8ND76 whole entry partner) above

CDK18/Cyclin Y = CDK18/Cyclin Y (Homo sapiens, UniProt Q07002); experiment: NanoBRET live-cell target engagement, CDK18-NanoLuc/Cyclin Y in HEK-293; type: binding; conditions: CDK18/Y; for IC50: read-out: IC50
CDK20/Cyclin H = CDK20/Cyclin H (Homo sapiens, UniProt Q8IZL9); experiment: NanoBRET live-cell target engagement, NanoLuc-CDK20/Cyclin H in HEK-293; type: binding; conditions: CDK20/H
CDK19/Cyclin C = CDK19/Cyclin C (Homo sapiens, UniProt Q9BWU1); experiment: NanoBRET live-cell target engagement, NanoLuc-CDK19/Cyclin C in HEK-293; conditions: CDK19/C
Chain of CDK19/Cyclin C (Q9BWU1 whole entry): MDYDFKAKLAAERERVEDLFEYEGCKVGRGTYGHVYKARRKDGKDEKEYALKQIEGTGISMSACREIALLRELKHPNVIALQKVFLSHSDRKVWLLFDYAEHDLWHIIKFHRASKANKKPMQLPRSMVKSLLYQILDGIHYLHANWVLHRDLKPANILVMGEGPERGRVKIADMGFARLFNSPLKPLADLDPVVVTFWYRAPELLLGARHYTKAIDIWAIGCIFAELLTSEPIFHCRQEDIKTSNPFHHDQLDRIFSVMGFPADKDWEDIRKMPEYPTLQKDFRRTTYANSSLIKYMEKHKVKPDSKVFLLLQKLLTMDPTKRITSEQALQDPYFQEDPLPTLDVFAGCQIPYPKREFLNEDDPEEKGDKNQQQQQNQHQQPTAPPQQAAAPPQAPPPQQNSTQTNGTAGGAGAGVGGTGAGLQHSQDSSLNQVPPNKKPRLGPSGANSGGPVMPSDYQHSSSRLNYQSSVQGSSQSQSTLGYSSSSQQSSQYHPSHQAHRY
Chain of CDK19/Cyclin C (P24863 whole entry partner): as the sequence (P24863 whole entry partner) above

Chain of CDK1/Cyclin E1 (P06493 whole entry): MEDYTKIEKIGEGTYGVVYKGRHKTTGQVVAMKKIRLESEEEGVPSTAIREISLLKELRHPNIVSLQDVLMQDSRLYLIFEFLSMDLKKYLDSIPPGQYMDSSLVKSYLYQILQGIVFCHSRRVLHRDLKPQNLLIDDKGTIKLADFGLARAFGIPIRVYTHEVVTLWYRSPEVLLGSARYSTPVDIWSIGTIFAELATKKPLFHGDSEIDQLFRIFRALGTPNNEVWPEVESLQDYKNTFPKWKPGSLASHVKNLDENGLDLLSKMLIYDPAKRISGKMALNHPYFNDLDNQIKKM
Chain of CDK1/Cyclin E1 (P24864 whole entry partner): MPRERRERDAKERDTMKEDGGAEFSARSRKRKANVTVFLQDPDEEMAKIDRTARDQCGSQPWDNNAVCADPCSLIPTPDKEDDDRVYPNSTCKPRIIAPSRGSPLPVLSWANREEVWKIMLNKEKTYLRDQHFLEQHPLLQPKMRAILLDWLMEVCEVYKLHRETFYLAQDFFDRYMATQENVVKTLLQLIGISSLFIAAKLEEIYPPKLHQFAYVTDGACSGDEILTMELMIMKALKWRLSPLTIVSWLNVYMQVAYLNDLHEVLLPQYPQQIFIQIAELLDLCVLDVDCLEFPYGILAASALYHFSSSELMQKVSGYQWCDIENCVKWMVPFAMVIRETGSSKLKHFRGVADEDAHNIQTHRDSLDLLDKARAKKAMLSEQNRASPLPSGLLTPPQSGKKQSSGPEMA

SMILES: CS(=O)(=O)N1CCC(NC(=O)c2[nH]ncc2NC(=O)c2c(Cl)cccc2Cl)CC1 [NVP-LCQ195]
- Inhibition at 10µM (%) (CDK1/Cyclin E1; average): 92.5%
- IC50 (CDK1/Cyclin E1; average (± SEM where n=3)): 83 nM
- Inhibition at 10µM (%) (CDK1/Cyclin E1; experiment 1): 94.8%
- IC50 (CDK1/Cyclin E1; experiment 1): 58 nM
- Inhibition at 10µM (%) (CDK1/Cyclin E1; experiment 2): 90.2%
- IC50 (CDK1/Cyclin E1; experiment 2): 108 nM
- Inhibition at 10µM (%) (CDK2/Cyclin E1): 99.5% and 98.9%
- Inhibition at 10µM (%) (CDK3/Cyclin E1; CDK3/E1, average): 97.9%
- IC50 (CDK3/Cyclin E1; CDK3/E1, average (± SEM where n=3), read-out: IC50): 36 nM
- Inhibition at 10µM (%) (CDK3/Cyclin E1; CDK3/E1, experiment 1): 98.1%
- IC50 (CDK3/Cyclin E1; CDK3/E1, experiment 1, read-out: IC50): 36 nM
- Inhibition at 10µM (%) (CDK3/Cyclin E1; CDK3/E1, experiment 2): 97.6%
- IC50 (CDK3/Cyclin E1; CDK3/E1, experiment 2, read-out: IC50): 36 nM
- IC50 (CDK3/Cyclin E1; live HEK-293, 2 h, mean ± S.E.M. (n=3) or mean (n=2), read-out: IC50 for CDK/cyclin complexes, CDK3/E1): 36 nM
- Inhibition at 10µM (%) (CDK4/Cyclin D1; average): 94.3%
- IC50 (CDK4/Cyclin D1; average (± SEM where n=3)): 15 nM
- Inhibition at 10µM (%) (CDK4/Cyclin D1; experiment 1): 100.8%
- IC50 (CDK4/Cyclin D1; experiment 1): 19 nM
- Inhibition at 10µM (%) (CDK4/Cyclin D1; experiment 2): 87.9%
- IC50 (CDK4/Cyclin D1; experiment 2): 11 nM
- Inhibition at 10µM (%) (CDK5/CDK5R1; average): 93.1%
- IC50 (CDK5/CDK5R1; average (± SEM where n=3)): 31 nM
- Inhibition at 10µM (%) (CDK5/CDK5R1; experiment 1): 90.4%
- IC50 (CDK5/CDK5R1; experiment 1): 37 nM
- Inhibition at 10µM (%) (CDK5/CDK5R1; experiment 2): 95.7%
- IC50 (CDK5/CDK5R1; experiment 2): 25 nM
- Inhibition at 10µM (%) (CDK6/Cyclin D1; average): 99.2%
- IC50 (CDK6/Cyclin D1; average (± SEM where n=3)): 15 nM
- Inhibition at 10µM (%) (CDK6/Cyclin D1; experiment 1): 98.6%
- IC50 (CDK6/Cyclin D1; experiment 1): 18 nM
- Inhibition at 10µM (%) (CDK6/Cyclin D1; experiment 2): 99.9%
- IC50 (CDK6/Cyclin D1; experiment 2): 12 nM
- IC50 (CDK7; average (± SEM where n=3)): 69 nM
- Inhibition at 10µM (%) (CDK7; experiment 1): 86.7%
- IC50 (CDK7; experiment 1): 68 nM
- Inhibition at 10µM (%) (CDK7; experiment 2): 89.1%
- IC50 (CDK7; experiment 2): 70 nM
- Inhibition at 10µM (%) (CDK8/Cyclin C; average): 31.8%
- Inhibition at 10µM (%) (CDK8/Cyclin C; experiment 1): 33.3%
- Inhibition at 10µM (%) (CDK8/Cyclin C; experiment 2): 30.3%
- Inhibition at 10µM (%) (CDK11A/Cyclin L2; average): 94.0%
- IC50 (CDK11A/Cyclin L2; average (± SEM where n=3)): 160 nM
- Inhibition at 10µM (%) (CDK11A/Cyclin L2; experiment 1): 93.9%
- IC50 (CDK11A/Cyclin L2; experiment 1): 225 nM
- Inhibition at 10µM (%) (CDK11A/Cyclin L2; experiment 2): 94.1%
- IC50 (CDK11A/Cyclin L2; experiment 2): 95 nM
- Inhibition at 10µM (%) (CDK11B/Cyclin L2; average): 94.8%
- IC50 (CDK11B/Cyclin L2; average (± SEM where n=3)): 37 nM
- Inhibition at 10µM (%) (CDK11B/Cyclin L2; experiment 1): 95.4%
- IC50 (CDK11B/Cyclin L2; experiment 1): 35 nM
- Inhibition at 10µM (%) (CDK11B/Cyclin L2; experiment 2): 94.2%
- IC50 (CDK11B/Cyclin L2; experiment 2): 39 nM
- Inhibition at 10µM (%) (CDK12/Cyclin K; average): 24.3%
- Inhibition at 10µM (%) (CDK12/Cyclin K; experiment 1): 26.4%
- Inhibition at 10µM (%) (CDK12/Cyclin K; experiment 2): 22.1%
- Inhibition at 10µM (%) (CDK13/Cyclin K; average): 20.5%
- Inhibition at 10µM (%) (CDK13/Cyclin K; experiment 1): 29.4%
- Inhibition at 10µM (%) (CDK13/Cyclin K; experiment 2): 11.5%
- Inhibition at 10µM (%) (CDK15/Cyclin Y; average): 92.4%
- IC50 (CDK15/Cyclin Y; average (± SEM where n=3)): 380 nM
- Inhibition at 10µM (%) (CDK15/Cyclin Y; experiment 1): 93.0%
- IC50 (CDK15/Cyclin Y; experiment 1): 531 nM
- Inhibition at 10µM (%) (CDK15/Cyclin Y; experiment 2): 91.9%
- IC50 (CDK15/Cyclin Y; experiment 2): 220 nM
- IC50 (CDK16/Cyclin Y; average (± SEM where n=3)): 13 nM
- Inhibition at 10µM (%) (CDK16/Cyclin Y; experiment 1): 92.7%
- IC50 (CDK16/Cyclin Y; experiment 1): 11 nM
- Inhibition at 10µM (%) (CDK16/Cyclin Y; experiment 2): 92.6%
- IC50 (CDK16/Cyclin Y; experiment 2): 14 nM
- Inhibition at 10µM (%) (CDK17/Cyclin Y; average): 92.4%
- IC50 (CDK17/Cyclin Y; average (± SEM where n=3)): 11 nM
- Inhibition at 10µM (%) (CDK17/Cyclin Y; experiment 1): 92.3%
- IC50 (CDK17/Cyclin Y; experiment 1): 14 nM
- Inhibition at 10µM (%) (CDK17/Cyclin Y; experiment 2): 92.4%
- IC50 (CDK17/Cyclin Y; experiment 2): 7.7 nM
- Inhibition at 10µM (%) (CDK18/Cyclin Y; average): 97.0%
- IC50 (CDK18/Cyclin Y; average (± SEM where n=3)): 240 nM
- Inhibition at 10µM (%) (CDK18/Cyclin Y; experiment 1): 93.5%
- IC50 (CDK18/Cyclin Y; experiment 1): 310 nM
- Inhibition at 10µM (%) (CDK18/Cyclin Y; experiment 2): 100.6%
- IC50 (CDK18/Cyclin Y; experiment 2): 166 nM
- Inhibition at 10µM (%) (CDK20/Cyclin H; experiment 1): 26.0%
- Inhibition at 10µM (%) (CDK20/Cyclin H; experiment 2): 16.0%
- Inhibition at 10µM (%) (CDK19/Cyclin C; average): 37.8%
- Inhibition at 10µM (%) (CDK19/Cyclin C; experiment 1): 38.7%
- Inhibition at 10µM (%) (CDK19/Cyclin C; experiment 2): 37.0%

— publication PMC7265341, “Quantifying CDK inhibitor selectivity in live cells” (Nature Communications, 2020)
